Source: PubChem BioAssay AID248 (DTP/NCI, 2004)
“And” between values parts separate entries of the source, which are not always exact repeats. Equal values may be shown once. Inconclusive results and toxic doses are left out. Rule as the data show it: active = T/C of 150% or more; inactive = T/C below 125%.

System: L1210 leukemia ip in BDF1 mice, survival T/C
Assay: NCI In Vivo Anticancer Drug Screen. Data for tumor model L1210 Leukemia (intraperitoneal) in B6D2F1 (BDF1) mice
Conditions: endpoint: mean survival time, higher = longer survival
In short: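 Antitumor effect is assessed in tumor-bearing animals. Survival in the compound arm is compared with a vehicle-dosed control arm and expressed as their quotient.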

[1] = dose: 100.0 mg/kg/injection, schedule: Q04DX002 (ip), vehicle: saline with Tween-80
[2] = dose: 200.0 mg/kg/injection, schedule: Q04DX002 (ip), vehicle: saline with Tween-80
[3] = dose: 100.0 mg/kg/injection, schedule: Q01DX001 (ip), vehicle: carboxymethylcellulose (CMC)
[4] = dose: 200.0 mg/kg/injection, schedule: Q01DX001 (ip), vehicle: carboxymethylcellulose (CMC)
[5] = dose: 400.0 mg/kg/injection, schedule: Q01DX001 (ip), vehicle: carboxymethylcellulose (CMC)
[6] = dose: 100.0 mg/kg/injection, schedule: Q01DX009 (ip), vehicle: saline with Tween-80
[7] = dose: 200.0 mg/kg/injection, schedule: Q01DX009 (ip), vehicle: saline with Tween-80
[8] = dose: 50.0 mg/kg/injection, schedule: Q01DX009 (ip), vehicle: saline with Tween-80

Measured: T/C

CCC(C)OC(=O)Nc1cccc(OC(=O)NC(C)C)c1 (stereo not given)
inactive: dose: 100.0 mg/kg/injection, schedule: Q04DX003 (ip), vehicle: saline with Tween-80 96 % of control | dose: 200.0 mg/kg/injection, schedule: Q04DX003 (ip), vehicle: saline with Tween-80 102 % of control | dose: 400.0 mg/kg/injection, schedule: Q04DX003 (ip), vehicle: saline with Tween-80 93 % of control

Nc1ccnn2nnnc12
inactive: dose: 100.0 mg/kg/injection, schedule: Q01DX001 (ip), vehicle: saline 97 % of control | dose: 200.0 mg/kg/injection, schedule: Q01DX001 (ip), vehicle: saline 91 % of control | dose: 400.0 mg/kg/injection, schedule: Q01DX001 (ip), vehicle: saline 97 % of control

Cc1ccc(S(=O)(=O)OCCCl)cc1
inactive: [1] 98 % of control | [2] 109 % of control

Oc1ccc(/C=N/N2CCOCC2)c(O)c1
inactive: [3] 100 % of control and 110 % of control | dose: 100.0 mg/kg/injection, schedule: Q01DX009 (ip), vehicle: carboxymethylcellulose (CMC) 97 % of control | dose: 100.0 mg/kg/injection, schedule: Q04DX002 (ip), vehicle: carboxymethylcellulose (CMC) 92 % of control and 89 % of control | dose: 100.0 mg/kg/injection, schedule: Q04DX003 (ip), vehicle: carboxymethylcellulose (CMC) 95 % of control and 103 % of control | [4] 98 % of control and 110 % of control | dose: 200.0 mg/kg/injection, schedule: Q01DX009 (ip), vehicle: carboxymethylcellulose (CMC) 95 % of control | dose: 200.0 mg/kg/injection, schedule: Q04DX002 (ip), vehicle: carboxymethylcellulose (CMC) 96 % of control and 103 % of control | dose: 200.0 mg/kg/injection, schedule: Q04DX003 (ip), vehicle: carboxymethylcellulose (CMC) 95 % of control and 90 % of control | [5] 98 % of control and 110 % of control | dose: 400.0 mg/kg/injection, schedule: Q01DX009 (ip), vehicle: carboxymethylcellulose (CMC) 88 % of control | dose: 400.0 mg/kg/injection, schedule: Q04DX002 (ip), vehicle: carboxymethylcellulose (CMC) 95 % of control and 86 % of control | dose: 400.0 mg/kg/injection, schedule: Q04DX003 (ip), vehicle: carboxymethylcellulose (CMC) 95 % of control and 87 % of control

CC(C)CC1NC(C)(C)CO1 (stereo not given)
inactive: dose: 75.0 mg/kg/injection, schedule: Q01DX001 (ip), vehicle: carboxymethylcellulose (CMC) 102 % of control | dose: 150.0 mg/kg/injection, schedule: Q01DX001 (ip), vehicle: carboxymethylcellulose (CMC) 95 % of control | dose: 300.0 mg/kg/injection, schedule: Q01DX001 (ip), vehicle: carboxymethylcellulose (CMC) 100 % of control

CCOC(=O)C1CCCNC1=O (stereo not given)
inactive: dose: 100.0 mg/kg/injection, schedule: Q04DX003 (ip), vehicle: saline 105 % of control | dose: 200.0 mg/kg/injection, schedule: Q04DX003 (ip), vehicle: saline 116 % of control | dose: 400.0 mg/kg/injection, schedule: Q04DX003 (ip), vehicle: saline 108 % of control

CNS(=O)(=O)c1ccc(NC(=O)C(Cl)Cl)cc1
inactive: dose: 100.0 mg/kg/injection, schedule: Q01DX001 (ip), vehicle: other 101 % of control | [6] 95 % of control | dose: 200.0 mg/kg/injection, schedule: Q01DX001 (ip), vehicle: other 103 % of control | [7] 106 % of control | dose: 400.0 mg/kg/injection, schedule: Q01DX001 (ip), vehicle: other 101 % of control | dose: 400.0 mg/kg/injection, schedule: Q01DX009 (ip), vehicle: saline with Tween-80 102 % of control

Cc1ccc(NC(=O)Nc2cc([N+](=O)[O-])ccc2C)cc1C
inactive: dose: 100.0 mg/kg/injection, schedule: Q04DX003 (ip), vehicle: Klucel (hydroxypropylcellulose) (HPC) 88 % of control | dose: 200.0 mg/kg/injection, schedule: Q04DX003 (ip), vehicle: Klucel (hydroxypropylcellulose) (HPC) 88 % of control | dose: 400.0 mg/kg/injection, schedule: Q04DX003 (ip), vehicle: Klucel (hydroxypropylcellulose) (HPC) 96 % of control

COc1ccc(C#N)cc1OC
inactive: dose: 6.25 mg/kg/injection, schedule: Q04DX002 (ip), vehicle: Klucel (hydroxypropylcellulose) (HPC) 93 % of control | dose: 12.5 mg/kg/injection, schedule: Q04DX002 (ip), vehicle: Klucel (hydroxypropylcellulose) (HPC) 96 % of control | dose: 25.0 mg/kg/injection, schedule: Q04DX002 (ip), vehicle: Klucel (hydroxypropylcellulose) (HPC) 93 % of control and 96 % of control | dose: 100.0 mg/kg/injection, schedule: Q04DX002 (ip), vehicle: Klucel (hydroxypropylcellulose) (HPC) 100 % of control | dose: 200.0 mg/kg/injection, schedule: Q04DX002 (ip), vehicle: Klucel (hydroxypropylcellulose) (HPC) 92 % of control

C/C(=C\Cl)COC1CCCCO1 (stereo not given)
inactive: dose: 100.0 mg/kg/injection, schedule: Q01DX009 (ip), vehicle: acetone 95 % of control | dose: 100.0 mg/kg/injection, schedule: Q04DX003 (ip), vehicle: acetone 101 % of control | dose: 200.0 mg/kg/injection, schedule: Q01DX009 (ip), vehicle: acetone 95 % of control | dose: 200.0 mg/kg/injection, schedule: Q04DX003 (ip), vehicle: acetone 101 % of control | dose: 400.0 mg/kg/injection, schedule: Q04DX003 (ip), vehicle: acetone 101 % of control

Cc1cc(Br)c2c(c1O)C13CCN(C)C(C2)C1CC(Br)C(=O)C3 (stereo not given)
inactive: dose: 1.56 mg/kg/injection, schedule: Q01DX001 (ip), vehicle: saline 97 % of control | dose: 3.12 mg/kg/injection, schedule: Q01DX001 (ip), vehicle: saline 100 % of control | dose: 6.25 mg/kg/injection, schedule: Q01DX001 (ip), vehicle: saline 105 % of control | dose: 12.5 mg/kg/injection, schedule: Q01DX001 (ip), vehicle: saline 108 % of control

CC(C)CCCC(C)CCCl (stereo not given)
inactive: [1] 93 % of control | [2] 86 % of control | dose: 400.0 mg/kg/injection, schedule: Q04DX002 (ip), vehicle: saline with Tween-80 107 % of control

Nc1c(Br)c(Cl)cc2c1-c1ccc(Cl)cc1C2S (stereo not given)
inactive: [3] 104 % of control | [4] 95 % of control | [5] 90 % of control

C=CCC(B1OCCO1)B1OCCO1
inactive: dose: 100.0 mg/kg/injection, schedule: Q04DX003 (ip), vehicle: saline sonified 106 % of control | dose: 200.0 mg/kg/injection, schedule: Q04DX003 (ip), vehicle: saline sonified 95 % of control | dose: 400.0 mg/kg/injection, schedule: Q04DX003 (ip), vehicle: saline sonified 110 % of control

O=C(/C=C\c1ccccc1)c1ccc(Cl)cc1
inactive: dose: 100.0 mg/kg/injection, schedule: Q01DX009 (ip), vehicle: Klucel (hydroxypropylcellulose) (HPC) 97 % of control | dose: 200.0 mg/kg/injection, schedule: Q01DX009 (ip), vehicle: Klucel (hydroxypropylcellulose) (HPC) 97 % of control | dose: 400.0 mg/kg/injection, schedule: Q01DX009 (ip), vehicle: Klucel (hydroxypropylcellulose) (HPC) 100 % of control

COc1ccc(/C=N\NC(=O)CNC(=O)Nc2cccc(Cl)c2)cc1OC
inactive: [8] 88 % of control | [6] 92 % of control | [7] 88 % of control

COc1ccccc1OC(=O)CCl
inactive: dose: 25.0 mg/kg/injection, schedule: Q01DX009 (ip), vehicle: saline with Tween-80 90 % of control | [8] 93 % of control | [6] 93 % of control

CC1=C2CC(C(C)(C)O)CCC2(C)CC/C1=N\N1CCCCC1 (stereo not given)
inactive: dose: 100.0 mg/kg/injection, schedule: Q04DX003 (sc), vehicle: olive oil, sesame oil, peanut oil 100 % of control | dose: 200.0 mg/kg/injection, schedule: Q04DX003 (sc), vehicle: olive oil, sesame oil, peanut oil 107 % of control | dose: 400.0 mg/kg/injection, schedule: Q04DX003 (sc), vehicle: olive oil, sesame oil, peanut oil 105 % of control
